The source made the active and inactive calls. No cut-off for these calls is given here.
Assays:
Raji [1] = assay: Cytotoxicity against human Raji cells assessed as [methyl-3H]thymidine incorporation into DNA at 0.5 ug/ml after 24 hrs; type: functional, cell-based
Raji [2] = assay: Cytotoxicity against human Raji cells assessed as [methyl-3H]thymidine incorporation into DNA at 1 ug/ml after 24 hrs; type: functional, cell-based

| SMILES | Activity (Raji [1]) | Activity (Raji [2]) |
| --- | --- | --- |
| CC(=O)O[C@@H]1C[C@@H]2[C@@]3(C)CC[C@H](O)CC3=CC[C@@]2(O)[C@@]2(O)CC[C@@](O)(C(C)=O)[C@@]12C | inactive | inactive |
| CC(=O)[C@]1(O)CC[C@@]2(O)[C@]1(C)[C@H](OC(=O)/C=C/c1ccccc1)C[C@@H]1[C@@]3(C)CC[C@H](O)CC3=CC[C@]12O | inactive | inactive |
| CO[C@H]1C[C@H](O[C@H]2CC[C@@]3(C)C(=CC[C@]4(O)[C@@H]3C[C@@H](OC(=O)c3ccccc3)[C@@]3(C)[C@]4(O)CC[C@@]3(O)[C@H](C)OC(=O)/C=C/c3ccccc3)C2)O[C@H](C)[C@H]1O | inactive | inactive |
| CO[C@H]1C[C@H](O[C@H]2CC[C@@]3(C)C(=CC[C@]4(O)[C@@H]3C[C@@H](OC(=O)c3ccccc3)[C@@]3(C)[C@]4(O)CC[C@@]3(O)[C@H](C)OC(=O)/C=C/c3ccccc3)C2)O[C@H](C)[C@H]1O[C@H]1C[C@@H](OC)[C@H](O)[C@@H](C)O1 | inactive | inactive |
| CC(=O)[C@]1(O)CC[C@@]2(O)[C@]1(C)[C@H](OC(=O)c1ccccc1)C[C@@H]1[C@@]3(C)CC[C@H](O)CC3=CC[C@]12O | inactive | inactive |
| CC(=O)O[C@@H]1C[C@@H]2[C@@]3(C)CC[C@H](O)CC3=CC[C@@]2(O)[C@@]2(O)CC[C@@](O)([C@H](C)O)[C@@]12C | inactive | inactive |
| C[C@H](OC(=O)c1ccccc1)[C@]1(O)CC[C@@]2(O)[C@]1(C)[C@H](OC(=O)c1ccccc1)C[C@@H]1[C@@]3(C)CC[C@H](O)CC3=CC[C@]12O | inactive | inactive |
| C[C@H](O)[C@]1(O)CC[C@@]2(O)[C@]1(C)[C@H](OC(=O)/C=C/c1ccccc1)C[C@@H]1[C@@]3(C)CC[C@H](O)CC3=CC[C@]12O | inactive | inactive |
| CC(=O)O[C@@H](C)[C@]1(O)CC[C@@]2(O)[C@]1(C)[C@H](OC(=O)c1cccnc1)C[C@@H]1[C@@]3(C)CC[C@H](O)CC3=CC[C@]12O | inactive | inactive |
| C[C@H](OC(=O)c1cccnc1)[C@]1(O)CC[C@@]2(O)[C@]1(C)[C@H](OC(=O)/C=C/c1ccccc1)C[C@@H]1[C@@]3(C)CC[C@H](O)CC3=CC[C@]12O | inactive | inactive |
| CC(=O)[C@]1(O)CC[C@@]2(O)[C@]1(C)[C@H](OC(=O)c1cccnc1)C[C@@H]1[C@@]3(C)CC[C@H](O)CC3=CC[C@]12O | inactive | inactive |
| CC(=O)O[C@@H](C)[C@]1(O)CC[C@@]2(O)[C@]1(C)[C@H](OC(=O)/C=C/c1ccccc1)C[C@@H]1[C@@]3(C)CC[C@H](O)CC3=CC[C@]12O | inactive | inactive |
| CO[C@H]1C[C@H](O[C@H]2CC[C@@]3(C)C(=CC[C@]4(O)[C@@H]3C[C@@H](OC(=O)/C=C/c3ccccc3)[C@@]3(C)[C@]4(O)CC[C@@]3(O)[C@H](C)O)C2)O[C@H](C)[C@H]1O[C@H]1C[C@@H](OC)[C@H](O)[C@@H](C)O1 | inactive | inactive |
| C[C@H](OC(=O)/C=C/c1ccccc1)[C@]1(O)CC[C@@]2(O)[C@]1(C)[C@H](OC(=O)c1ccccc1)C[C@@H]1[C@@]3(C)CC[C@H](O)CC3=CC[C@]12O | inactive | inactive |

Source: ChEMBL document CHEMBL1159244, “New polyoxypregnane ester derivatives from Leptadenia hastata” (J Nat Prod, 1995)
